Data taken from ChEMBL document CHEMBL3044678, “The synthesis and herbicidal activity of 1-alkyl-3-(alpha-hydroxy-substituted benzylidene)pyrrolidine-2,4-diones” (2005).
Activity calls are given as the source filed them. The calls are words filed in the database; no cut-off is given here.

Assays:
[1] = system: Echinochloa crus-galli; experiment: Herbicidal activity against Echinochloa crus-galli (barnyard grass) assessed as plant bleaching effect at 100 ug/mL; format: functional, organism-based; details: (L.) Beauv
[2] = system: Brassica napus; experiment: Herbicidal activity against Brassica napus (oilseed rape) assessed as growth inhibition at 10 ug/mL; format: functional; details: read-out: GI
[3] = system: Brassica napus; experiment: Herbicidal activity against Brassica napus (oilseed rape) assessed as growth inhibition at 100 ug/mL; format: functional; details: read-out: GI
[4] = system: Echinochloa crus-galli; experiment: Herbicidal activity against Echinochloa crus-galli (barnyard grass) assessed as growth inhibition at 10 ug/mL; format: functional; details: (L.) Beauv, read-out: GI
[5] = system: Echinochloa crus-galli; experiment: Herbicidal activity against Echinochloa crus-galli (barnyard grass) assessed as growth inhibition at 100 ug/mL; format: functional; details: (L.) Beauv, read-out: GI

| Compound | Activity [1] | inhibition of growth at 10 µg/mL [2] [%] | inhibition of growth at 100 µg/mL [3] [%] | inhibition of growth at 10 µg/mL [4] [%] | inhibition of growth at 100 µg/mL [5] [%] |
| --- | --- | --- | --- | --- | --- |
| COc1ccc(/C(O)=C2\C(=O)CN(C)C2=O)cc1 | Active | 7.9 | 50.7 | 16.2 | 78.8 |
| Cc1ccccc1/C(O)=C1\C(=O)CN(C(C)C)C1=O | Active | 15.2 | 62.4 | 76.9 | 77.3 |
| CC(C)(C)N1CC(=O)/C(=C(/O)c2ccc(Cl)cc2)C1=O | inactive | 13.8 | 98 | 0.4 | 20.8 |
| CS(=O)(=O)c1ccc(C(=O)C2C(=O)CCCC2=O)c(Cl)c1 [SULCOTRIONE] | Active | 3.5 | 38.1 | 29.4 | 45.1 |
| COc1ccccc1/C(O)=C1\C(=O)CN(C(C)(C)C)C1=O | Active | 41.2 | 69.5 | 74.9 | 82.9 |
| Cc1ccccc1/C(O)=C1\C(=O)CN(C)C1=O | Active | 0 | 44.4 | 31.2 | 78.3 |
| COc1ccc(/C(O)=C2\C(=O)CN(C(C)(C)C)C2=O)cc1 | Active | 5.4 | 77.7 | 78.7 | 80.3 |
| Cc1cccc(/C(O)=C2\C(=O)CN(C)C2=O)c1 | Active | 14 | 64 | 25.3 | 68.3 |
| CN1CC(=O)/C(=C(/O)c2ccc(Cl)cc2)C1=O | inactive | 15.8 | 90.5 | 9.4 | 50.1 |
| CC(C)N1CC(=O)/C(=C(/O)c2cccc([N+](=O)[O-])c2)C1=O | inactive | 10.2 | 70.3 | 0 | 42 |
| COc1ccc(/C(O)=C2\C(=O)CN(C(C)C)C2=O)cc1 | Active | 11.9 | 71 | 79.6 | 80 |
| CC(C)N1CC(=O)/C(=C(/O)c2ccc([N+](=O)[O-])cc2)C1=O | inactive | 4.5 | 34.2 | 0 | 1.6 |
| Cc1ccccc1/C(O)=C1\C(=O)CN(C(C)(C)C)C1=O | Active | 21.1 | 74.9 | 63.6 | 74.4 |
| CC(C)N1CC(=O)/C(=C(/O)c2ccccc2Cl)C1=O | Active | 38.9 | 66.8 | 51 | 77.9 |
| CC(C)(C)N1CC(=O)/C(=C(/O)c2ccc([N+](=O)[O-])cc2)C1=O | inactive | 1.8 | 48.1 | 0 | 9.8 |
| CN1CC(=O)/C(=C(/O)c2cccc([N+](=O)[O-])c2)C1=O | inactive | 0 | 22.4 | 5.2 | 42.8 |
| CN1CC(=O)/C(=C(/O)c2ccc([N+](=O)[O-])cc2)C1=O | inactive | 5.1 | 40.9 | 9 | 51.9 |
| CC(C)(C)N1CC(=O)/C(=C(/O)c2cccc([N+](=O)[O-])c2)C1=O | inactive | 22.1 | 80.1 | 0 | 0.5 |
| Cc1ccc(/C(O)=C2\C(=O)CN(C(C)C)C2=O)cc1 | Active | 8.1 | 86.4 | 76.8 | 78.4 |
| Cc1cccc(/C(O)=C2\C(=O)CN(C(C)(C)C)C2=O)c1 | inactive | 24.9 | 85 | 4.9 | 48.5 |
| Cc1ccc(/C(O)=C2\C(=O)CN(C(C)(C)C)C2=O)cc1 | inactive | 13.5 | 88.1 | 36.3 | 48 |
| COc1ccccc1/C(O)=C1\C(=O)CN(C(C)C)C1=O | Active | 3 | 58.7 | 77.3 | 78.1 |
| CC(C)N1CC(=O)/C(=C(/O)c2ccc(Cl)cc2)C1=O | Active | 16 | 77.2 | 25.1 | 68 |
| Cc1cccc(/C(O)=C2\C(=O)CN(C(C)C)C2=O)c1 | Active | 3.3 | 82.1 | 49.2 | 75.5 |
